These results are taken from US11116212B2, “Carbonyl containing compounds for controlling and repelling Cimicidae populations” (SemiosBio Technologies Inc., priority 2011, dated 2021).

Structures can show the parent of a compound that is named as a salt. Where two headings read alike, the source gives them in different places.

This experiment concerns bed bugs, Cimex lectularius. Briefly: Bed bug repellency bioassay, glass tube olfactometer arena. In kind it is in vivo. The note with it: for pest or weed control at 25 % strength / pest or weed control at 5 % strength / pest or weed control at 1 %: Cimex lectularius; for % Repellency, At least One Average >50%: best average over 3 replicates for a single time period; for pest or weed control at 1 %: 10 uL. The method, then: Per individual bioassay, 10 adult or late instar nymph bed bugs, Cimex lectularius, of mixed sex. Bed bugs sourced from wild, field populations and tested within 2 weeks of capture. Subjects were tested one time, only.
(ii) Olfactometer consisting of a glass tube. Tube ends were plugged to prevent egress of test subjects. Test substrates were placed at opposite ends of the tube. Tube Olfactometer includes a port in the centre for introduction of test subjects. Dimensions of the tube were 15.2 mm in diameter by 304.8 mm long.
Compounds were either purchased from commercial sources or synthesized using conventional synthetic organic chemistry techniques (see, for example, Examples 5 to 7). Some compounds (014, 058 and 080) were tested in duplicate (one version from commercial sources and one synthesized) and the best performance is reported in the Tables below. Of the tested compounds reported in the Tables below, the following compounds were synthesized: 006, 010, 017, 018, 040, 041 to 043, 045, 046, 048, 049, 058, 067 to 075, 079, 080 to 082, 089 and 090.
Test compounds consisted of a control and treatment. The treatment consisted of a test compound mixed as a percentage w/w in a suitable solvent. The test compound solvent itself was used as a control. Solvents used were hexane, hexane:methanol, or dichloromethane:methanol.
(i) Gauze cut to a standard size and folded upon itself to provide harbourage for test subjects.
(iii) Absorbent polymer “aroma” beads that were given sufficient time to fully absorb test compounds and control solvents.
In the case of gauze and filter paper substrates, control solvents and test mixtures of known concentrations and volumes were dispensed directly onto substrates using a pipette. For polymer beads, beads were mixed w/w with solvent or test compound in a small glass jar. The jars were occasionally agitated to facilitate soaking of the beads.
Immediately after the substrates were infused with test compounds and control solvents, test subjects were introduced to the centre of the selected observation arena. […] Only subjects that were in close contact with the treatment or control substrates were recorded. Subjects elsewhere in the arena were not included in repellency calculations. Percentage repellency was calculated based on a modification of Abbott's formula to account for negative repellency (attraction). Specifically: IF(C>=T,(C−T)/C*100,(T−C)/T*−100)
where C is number of test subjects in contact with control substrate and T is number of test subjects in contact with treatment substrate.
All average repellency results reported in the table are based on 3 replicates for each reported trial, with each trial involving at least 3 observation periods. The observation periods were short-term (30 min), medium-term (1-2 hours), and long-term (24-48 hours). The “overall average” reported in the table represents the average for 3 replicates for 3 observation periods. […]
To determine whether compounds could be combined in the repellent compositions, compounds 14 and 35 were each tested at a concentration of 5% (w/w), and as a combination comprising each compound at a concentration of 2.5% (w/w). The formulations were tested as described in Example 1 using the olfactometer configuration.

Setting [1] is: beads, 20 uL, 25% w/w in hexane, average of 3 replicates x 3 observation periods, read-out: % Repellency (% R), Overall Average.
Setting [2] is: gauze, 50 uL, 5% w/v in hexane, average of 3 replicates x 3 observation periods, read-out: % Repellency (% R), Overall Average.
[3] abbreviates: gauze, 1% v/v in hexane, average of 3 replicates x 3 observation periods, read-out: % Repellency (% R), Overall Average.
[4] abbreviates: observation period T1, gauze, 50 uL, 5% w/v in hexane, read-out: % Repellency T1 (average of 3 repetitions).
Setting [5] is: observation period T2, gauze, 50 uL, 5% w/v in hexane, read-out: % Repellency T2 (average of 3 repetitions).
Setting [6] is: observation period T3, gauze, 50 uL, 5% w/v in hexane, read-out: % Repellency T3 (average of 3 repetitions).
Setting [7] is: gauze, 50 uL, 5% w/v in hexane, best single observation (one repetition, one time), read-out: % Repellency, At least One Time >50%.

As for `CC(=O)OCc1ccco1` [Compound 084, Furfuryl acetate], under setting [1], the pest or weed control at 25 % strength was 61%.
In the case of `CCC(=O)COC=O` [Compound 010, 2-oxobutyl formate], the pest or weed control at 25 % strength under setting [1] amounted to 45%; the pest or weed control at 25 % strength (observation period T1, beads, 20 uL, 25% w/w in hexane, read-out: % Repellency T1 (average of 3 repetitions)) turned out to be 85%; the pest or weed control at 25 % strength (observation period T2, beads, 20 uL, 25% w/w in hexane, read-out: % Repellency T2 (average of 3 repetitions)) turned out to be 42%; the pest or weed control at 25 % strength (observation period T3, beads, 20 uL, 25% w/w in hexane, read-out: % Repellency T3 (average of 3 repetitions)) is 8%. Under “beads, 20 uL, 25% w/w in hexane”, the “% Repellency, At least One Average >50%” value is recorded as 85%.
For `CCC(=O)NCC(OC)OC` [Compound 045, N-(2,2-dimethoxyethyl) propionamide], the pest or weed control at 5 % strength under setting [2] turned out to be 70%.
Consider `CCC(=O)/C=C/C(=O)CC` [Compound 067, (E)-oct-4-ene-3,6-dione], for which the pest or weed control at 5 % strength (gauze, 50 uL, 5% w/v in hexane:methanol (1:1), average of 3 replicates x 3 observation periods, read-out: % Repellency (% R), Overall Average) was more than 80%.
Consider `CCC(=O)C(=O)OC` [Compound 054, Methyl-2-oxobutanoate], for which the pest or weed control at 1 % under setting [3] was more than 80%.
In the case of `CCOC(=O)/C=C(\C)C=O` [Compound 057, Ethyl 3-methyl-4-oxocrotonate], the pest or weed control at 25 % strength under setting [1] was more than 80%.
`CCCC(=O)/C=C/C=O` [Compound 003, 4-oxo-2-heptenal]: the pest or weed control at 5 % strength under setting [2] was more than 80%.
Turning to `CCC(=O)CC(=O)OC` [Compound 034, Methyl 3-oxovalerate], the pest or weed control at 5 % strength by setting is: under setting [2], 27%; under setting [4], 81%; under setting [5], 94%; under setting [6], -94%. Also, where the note is “gauze, 50 uL, 5% w/v in hexane”, the “% Repellency, At least One Average >50%” value was found to be 94%.
Regarding `CCOC(=O)CCC(C)=O` [Compound 076, ethyl levulinate], under setting [2], the pest or weed control at 5 % strength was 69%.
Still for that read-out and setting: next, `C=CCNC(=O)CC` [Compound 043, N-allylpropionamide]: 59%.
In the case of `CCC(=O)OCC1CCCO1` (stereo not drawn) [Compound 060, Tetrahydro furfuryl propionate], under setting [1], the pest or weed control at 25 % strength turned out to be 78%.
As for `CCCCC(=O)/C=C/CO` [Compound 041, (E)-1-hydroxyoct-2-en-4-one], under setting [2], the pest or weed control at 5 % strength was more than 80%.
On the same count and under the same terms, then `CCC(C)C(O)c1ccco1` (stereo not drawn) [Compound 072], with 79%; and `CCC(=O)/C=C/c1ccco1` [Compound 040, (E)-1-(furan-2-yl)pent-1-en-3-one], with more than 80%.
On to `CC(C)C(O)c1ccco1` (stereo not drawn) [Compound 071, 1-(furan-2-yl)-2-methylpropan-1-ol], for which the pest or weed control at 1 % under setting [3] came out at 57%.
As for `CCCC(=O)c1ccco1` [Compound 086, 2-butyrylfuran], the pest or weed control at 25 % strength (beads, 20 uL, 25% w/w in hexane:methanol (1:1), average of 3 replicates x 3 observation periods, read-out: % Repellency (% R), Overall Average) is more than 80%.
As to `CCC(=O)/C=C/C(=O)O` [Compound 070, (E)-4-oxohex-2-enoic acid], the pest or weed control at 1 % (gauze, 1% v/v in hexane:methanol (1:1), average of 3 replicates x 3 observation periods, read-out: % Repellency (% R), Overall Average) is 74%.
On to `C=COC(=O)CC` [Compound 031, Vinyl propionate], for which the pest or weed control at 5 % strength under setting [2] worked out at 8%; the pest or weed control at 5 % strength under setting [7] was 100%; the pest or weed control at 5 % strength under setting [4] stood at 45%; the pest or weed control at 5 % strength under setting [5] was 45%; the pest or weed control at 5 % strength under setting [6] was -67%.
Take `CCCCCC=O` [Compound 037, hexanal]: the pest or weed control at 5 % strength under setting [2] was 79%.
On the same count and under the same terms, then `CCC(=O)/C(C)=C/c1ccco1` [Compound 048, (E)-1-(furan-2-yl)-2-methylpent-1-en-3-one], with more than 80%.
With `CCCC(=O)CC` [Compound 026, 3-Hexanone], the pest or weed control at 5 % strength by setting is: under setting [2], 15%; under setting [7], 100%; under setting [4], 44%; under setting [5], 37%; under setting [6], -36%.
For `CCC/C=C/C=O` [Compound 038, trans-2-hexen-1-al], the pest or weed control at 5 % strength under setting [2] stood at 72%.
On to `CCC(=O)/C=C(\C)C(C)=O` [Compound 074, (E)-3-methylhept-3-ene-2,5-dione], for which, for the setting “beads, 20 uL, 25% w/w in dichloromethane:methanol (1:1), average of 3 replicates x 3 observation periods, read-out: % Repellency (% R), Overall Average”, the pest or weed control at 25 % strength was more than 80%.
As for `CCC(=O)C(=O)CC` [Compound 027, 3,4-Hexanedione], under “read-out: % Repellency (% R), Overall Average, gauze, 50 uL, 5% w/v in hexane, average of 3 replicates x 3 observation periods”, the pest or weed control at 5 % strength worked out at 75%.
Regarding `CCC(=O)OCC=O` [Compound 008, 2-oxoethyl propionate], the pest or weed control at 5 % strength was 27% under setting [2], 12% under setting [4], 53% under setting [5] and 17% under setting [6]. Also, the “% Repellency, At least One Average >50%” value (gauze, 50 uL, 5% w/v in hexane) worked out at 53%.
For the compound `CCC(=O)c1ccco1` [Compound 014, 1-(furan-2-yl)propan-1-one], under setting [1], the pest or weed control at 25 % strength was more than 80%. In addition, where the note is “Example 2, single compound at 5% (w/w)”, the “% R (Overall Average)” value is on record as 71%.
In the case of `CCCCCCC(=O)CC` [Compound 028, 3-Nonanone], the pest or weed control at 1 % reads like this: under setting [3], -10%; (gauze, 1% v/v in hexane, best single observation (one repetition, one time), read-out: % Repellency, At least One Time >50%) 67%; (observation period T1, gauze, 1% v/v in hexane, read-out: % Repellency T1 (average of 3 repetitions)) -11%; (observation period T2, gauze, 1% v/v in hexane, read-out: % Repellency T2 (average of 3 repetitions)) -11%; (observation period T3, gauze, 1% v/v in hexane, read-out: % Repellency T3 (average of 3 repetitions)) -6%.
Take `CCC(O)c1ccco1` (stereo not drawn) [Compound 075, 1-(furan-2-yl) propan-1-ol]: the pest or weed control at 1 % under setting [3] was 79%.
Consider `COC(=O)/C=C/C(=O)OC` [Compound 058, dimethyl fumarate], for which, under setting [2], the pest or weed control at 5 % strength was more than 80%.
On the same count and under the same terms, next, `CCC(C)C(=O)c1ccco1` (stereo not drawn) [Compound 089, 1-furan-2-yl-2-methylbutan-1-one]: more than 80%.
In the case of `CCC(=O)NC` [Compound 032, N-Methylpropionamide], the pest or weed control at 25 % strength reads like this: (read-out: % Repellency (% R), Overall Average, beads, 20 uL, 25% w/w in hexane, average of 3 replicates x 3 observation periods) -9%; (read-out: % Repellency T1 (average of 3 repetitions), observation period T1, beads, 20 uL, 25% w/w in hexane) 39%; (read-out: % Repellency T2 (average of 3 repetitions), observation period T2, beads, 20 uL, 25% w/w in hexane) -40%; (read-out: % Repellency T3 (average of 3 repetitions), observation period T3, beads, 20 uL, 25% w/w in hexane) -25%; (read-out: % Repellency, At least One Time >50%, beads, 20 uL, 25% w/w in hexane, best single observation (one repetition, one time)) 100%.
